For assay [1], the system named is mobilized peripheral blood CD34+ cells. Nature of the assay: CD34+ expansion assay. In kind it is cell-based. To be noted: Homo sapiens; read-out: CD34 Frequency EC50. On the procedure:
Approximately 3,000 mobilized peripheral blood CD34+ cells were plated per well in 384-well plate at a final volume of 45 μL in HSC growth media (SFEM supplemented with Pen/Strep, 50 ng/mL FLT3L, TPO, SCF and IL-6). Serial dilutions were made in HSC growth media with a top final concentration of 10 μM. 5 μL 10× stock was added to each well. The plate was gently tapped on all sides and incubated for 7 days at 37° C./5% CO2. On day 7, the media was aspirated on a Biotek plate washer and 30 μL staining solution was added to the cells with antibodies against CD34-PE, CD90-APC, CD45RA-PE-CF594 in PBS. Cells were washed once in PBS and resuspended in 80 μL for final volume. 40 μL was acquired by flow cytometry (BD Celesta).

The target of assay [2] is T1, aryl hydrocarbon receptor (AHR) (Homo sapiens, UniProt P35869).
T1 sequence (P35869 11-848): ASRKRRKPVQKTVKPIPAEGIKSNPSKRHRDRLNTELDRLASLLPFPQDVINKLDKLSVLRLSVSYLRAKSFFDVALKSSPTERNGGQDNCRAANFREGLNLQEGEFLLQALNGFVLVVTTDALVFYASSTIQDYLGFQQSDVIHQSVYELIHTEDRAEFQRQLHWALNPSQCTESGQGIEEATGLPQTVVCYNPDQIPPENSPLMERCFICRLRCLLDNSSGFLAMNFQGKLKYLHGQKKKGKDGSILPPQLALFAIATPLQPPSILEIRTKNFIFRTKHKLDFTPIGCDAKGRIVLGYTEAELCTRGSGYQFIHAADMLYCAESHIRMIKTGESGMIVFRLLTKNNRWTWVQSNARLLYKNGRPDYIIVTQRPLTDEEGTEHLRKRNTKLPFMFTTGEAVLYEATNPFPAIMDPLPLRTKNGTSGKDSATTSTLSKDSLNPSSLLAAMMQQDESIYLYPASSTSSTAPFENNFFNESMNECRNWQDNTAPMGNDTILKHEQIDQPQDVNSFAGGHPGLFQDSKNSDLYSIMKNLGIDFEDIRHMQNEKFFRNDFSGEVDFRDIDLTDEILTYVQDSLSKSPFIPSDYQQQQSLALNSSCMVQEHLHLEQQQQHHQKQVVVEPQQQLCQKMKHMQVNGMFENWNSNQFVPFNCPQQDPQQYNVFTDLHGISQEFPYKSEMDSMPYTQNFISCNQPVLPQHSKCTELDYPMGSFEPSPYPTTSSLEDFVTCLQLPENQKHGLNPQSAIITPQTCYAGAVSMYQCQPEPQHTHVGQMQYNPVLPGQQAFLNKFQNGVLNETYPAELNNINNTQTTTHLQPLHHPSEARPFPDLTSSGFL
Nature of the assay: DRE-Luciferase reporter high-throughput screen (AHR antagonist, VAF347-activated). (Reporter assays use an easily measured gene product as a stand-in for the process of interest.)

Usually EC50 stands for the concentration giving half of the maximal effect. The IC50 is the midpoint of a concentration-inhibition curve. A higher IC50 goes with weaker potency.

As for `OCCCc1nc2n(n1)C(c1cccc(Br)c1)C=C(c1ccc(Cl)cc1)N2` (stereo not shown) [compound 109], the EC50 in assay [1] lay within 500 to 1000 nM. Moreover, the IC50 in assay [2] lay in the range of 200 to 500 nM.
On to `COc1ccc(C(=O)Nc2ccc3c(c2)oc2ccccc23)cc1[N+](=O)[O-]` [compound 14], for which the concentration giving a half-maximal response (EC50) in assay [1] is under 500 nM. For the same compound, the IC50 in assay [2] was under 200 nM.

These data come from patent US20210220408A1, “ARYL HYDROCARBON RECEPTOR ANTAGONISTS AND METHODS OF USE” (Magenta Therapeutics Inc., priority 2018, published 2021).
